Biological target: Aβ42 (Homo sapiens, UniProt P05067)
Test: Th-T (thioflavin-T) assay of Aβ42 aggregation
Assay type: biochemical
Details: for Th-T fluorescence of Aβ42 with compound, mean of three wells (Fig. 7a source data): concentration 50, unit not given

Sequence of Aβ42 (P05067 672-713): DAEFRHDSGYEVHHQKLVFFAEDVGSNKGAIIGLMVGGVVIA

## C=C1CCC2C(C)(CCC=C(C)C)C(O)CCC2(C)C1Cc1c(OC)oc(CO)c(C(=O)OC)c1=O (stereo not drawn) [Compound 13]
time-course reading M143
  Th-T fluorescence of Aβ42 with compound, mean of three wells (Fig. 7a source data): 0.478
time-course reading M144
  Th-T fluorescence of Aβ42 with compound, mean of three wells (Fig. 7a source data): 0.478
time-course reading M145
  Th-T fluorescence of Aβ42 with compound, mean of three wells (Fig. 7a source data): 0.4736
Head suffix _10 (concentration 10), reading M63
  Th-T fluorescence of Aβ42 (sheet Fig. 7a), mean of three wells: 1.556
Head suffix _10 (concentration 10), reading M64
  Th-T fluorescence of Aβ42 (sheet Fig. 7a), mean of three wells: 1.557
Head suffix _10 (concentration 10), reading M65
  Th-T fluorescence of Aβ42 (sheet Fig. 7a), mean of three wells: 1.551
Head suffix _10 (concentration 10), reading M66
  Th-T fluorescence of Aβ42 (sheet Fig. 7a), mean of three wells: 1.553
Head suffix _10 (concentration 10), reading M67
  Th-T fluorescence of Aβ42 (sheet Fig. 7a), mean of three wells: 1.558
Head suffix _10 (concentration 10), reading M68
  Th-T fluorescence of Aβ42 (sheet Fig. 7a), mean of three wells: 1.564
Head suffix _10 (concentration 10), reading M69
  Th-T fluorescence of Aβ42 (sheet Fig. 7a), mean of three wells: 1.56
Head suffix _10 (concentration 10), reading M70
  Th-T fluorescence of Aβ42 (sheet Fig. 7a), mean of three wells: 1.554
Head suffix _10 (concentration 10), reading M71
  Th-T fluorescence of Aβ42 (sheet Fig. 7a), mean of three wells: 1.549
Head suffix _10 (concentration 10), reading M72
  Th-T fluorescence of Aβ42 (sheet Fig. 7a), mean of three wells: 1.561
Head suffix _10 (concentration 10), reading M73
  Th-T fluorescence of Aβ42 (sheet Fig. 7a), mean of three wells: 1.566
Head suffix _10 (concentration 10), reading M74
  Th-T fluorescence of Aβ42 (sheet Fig. 7a), mean of three wells: 1.559
Head suffix _10 (concentration 10), reading M75
  Th-T fluorescence of Aβ42 (sheet Fig. 7a), mean of three wells: 1.561
Head suffix _10 (concentration 10), reading M76
  Th-T fluorescence of Aβ42 (sheet Fig. 7a), mean of three wells: 1.555
Head suffix _10 (concentration 10), reading M77
  Th-T fluorescence of Aβ42 (sheet Fig. 7a), mean of three wells: 1.558
Head suffix _10 (concentration 10), reading M78
  Th-T fluorescence of Aβ42 (sheet Fig. 7a), mean of three wells: 1.561
Head suffix _10 (concentration 10), reading M79
  Th-T fluorescence of Aβ42 (sheet Fig. 7a), mean of three wells: 1.5579
Head suffix _10 (concentration 10), reading M80
  Th-T fluorescence of Aβ42 (sheet Fig. 7a), mean of three wells: 1.555
Head suffix _10 (concentration 10), reading M81
  Th-T fluorescence of Aβ42 (sheet Fig. 7a), mean of three wells: 1.559
Head suffix _10 (concentration 10), reading M82
  Th-T fluorescence of Aβ42 (sheet Fig. 7a), mean of three wells: 1.556
Head suffix _10 (concentration 10), reading M83
  Th-T fluorescence of Aβ42 (sheet Fig. 7a), mean of three wells: 1.5605
Head suffix _10 (concentration 10), reading M84
  Th-T fluorescence of Aβ42 (sheet Fig. 7a), mean of three wells: 1.551
Head suffix _20 (concentration 20), reading M63
  Th-T fluorescence of Aβ42 (sheet Fig. 7a), mean of three wells: 1.031
Head suffix _20 (concentration 20), reading M64
  Th-T fluorescence of Aβ42 (sheet Fig. 7a), mean of three wells: 1.035
Head suffix _20 (concentration 20), reading M65
  Th-T fluorescence of Aβ42 (sheet Fig. 7a), mean of three wells: 1.042
Head suffix _20 (concentration 20), reading M66
  Th-T fluorescence of Aβ42 (sheet Fig. 7a), mean of three wells: 1.05
Head suffix _20 (concentration 20), reading M67
  Th-T fluorescence of Aβ42 (sheet Fig. 7a), mean of three wells: 1.057
Head suffix _20 (concentration 20), reading M68
  Th-T fluorescence of Aβ42 (sheet Fig. 7a), mean of three wells: 1.061
Head suffix _20 (concentration 20), reading M69
  Th-T fluorescence of Aβ42 (sheet Fig. 7a), mean of three wells: 1.053
Head suffix _20 (concentration 20), reading M70
  Th-T fluorescence of Aβ42 (sheet Fig. 7a), mean of three wells: 1.058
Head suffix _20 (concentration 20), reading M71
  Th-T fluorescence of Aβ42 (sheet Fig. 7a), mean of three wells: 1.058
Head suffix _20 (concentration 20), reading M72
  Th-T fluorescence of Aβ42 (sheet Fig. 7a), mean of three wells: 1.061
Head suffix _20 (concentration 20), reading M73
  Th-T fluorescence of Aβ42 (sheet Fig. 7a), mean of three wells: 1.063
Head suffix _20 (concentration 20), reading M74
  Th-T fluorescence of Aβ42 (sheet Fig. 7a), mean of three wells: 1.057
Head suffix _20 (concentration 20), reading M75
  Th-T fluorescence of Aβ42 (sheet Fig. 7a), mean of three wells: 1.056
Head suffix _20 (concentration 20), reading M76
  Th-T fluorescence of Aβ42 (sheet Fig. 7a), mean of three wells: 1.058
Head suffix _20 (concentration 20), reading M77
  Th-T fluorescence of Aβ42 (sheet Fig. 7a), mean of three wells: 1.059
Head suffix _20 (concentration 20), reading M78
  Th-T fluorescence of Aβ42 (sheet Fig. 7a), mean of three wells: 1.0603
Head suffix _20 (concentration 20), reading M79
  Th-T fluorescence of Aβ42 (sheet Fig. 7a), mean of three wells: 1.056
Head suffix _20 (concentration 20), reading M80
  Th-T fluorescence of Aβ42 (sheet Fig. 7a), mean of three wells: 1.0496
Head suffix _20 (concentration 20), reading M81
  Th-T fluorescence of Aβ42 (sheet Fig. 7a), mean of three wells: 1.051
Head suffix _20 (concentration 20), reading M82
  Th-T fluorescence of Aβ42 (sheet Fig. 7a), mean of three wells: 1.061
Head suffix _20 (concentration 20), reading M83
  Th-T fluorescence of Aβ42 (sheet Fig. 7a), mean of three wells: 1.058
Head suffix _20 (concentration 20), reading M84
  Th-T fluorescence of Aβ42 (sheet Fig. 7a), mean of three wells: 1.053
Head suffix _50 (concentration 50), reading M63
  Th-T fluorescence of Aβ42 (sheet Fig. 7a), mean of three wells: 0.4695
Head suffix _50 (concentration 50), reading M64
  Th-T fluorescence of Aβ42 (sheet Fig. 7a), mean of three wells: 0.467
Head suffix _50 (concentration 50), reading M65
  Th-T fluorescence of Aβ42 (sheet Fig. 7a), mean of three wells: 0.4693
Head suffix _50 (concentration 50), reading M66
  Th-T fluorescence of Aβ42 (sheet Fig. 7a), mean of three wells: 0.4724
Head suffix _50 (concentration 50), reading M67
  Th-T fluorescence of Aβ42 (sheet Fig. 7a), mean of three wells: 0.4748
Head suffix _50 (concentration 50), reading M68
  Th-T fluorescence of Aβ42 (sheet Fig. 7a), mean of three wells: 0.4706
Head suffix _50 (concentration 50), reading M69
  Th-T fluorescence of Aβ42 (sheet Fig. 7a), mean of three wells: 0.4713
Head suffix _50 (concentration 50), reading M70
  Th-T fluorescence of Aβ42 (sheet Fig. 7a), mean of three wells: 0.4681
Head suffix _50 (concentration 50), reading M71
  Th-T fluorescence of Aβ42 (sheet Fig. 7a), mean of three wells: 0.4721
Head suffix _50 (concentration 50), reading M72
  Th-T fluorescence of Aβ42 (sheet Fig. 7a), mean of three wells: 0.4741

From paper PMC7156458, “Synthetic biology based construction of biological activity-related library of fungal decalin-containing diterpenoid pyrones” (Nature Communications, 2020)
